According to patent publication US7893108B2, “Antiviral methods and compositions” (priority 2004, dated 2011):
pIC50: −log10 of the molar value. “Also recorded” adds a separate entry of the source. Where two headings read alike, the source gives them in different places.

Assays:
UL54 = UL54 (Human cytomegalovirus, UniProt P08546); experiment: basal DNA polymerase activity of UL54 alone (filter-based assay); format: biochemical; details: 0, 4, 20, 40, 100 μM; 20 min at 37° C.; read-out: IC50 for inhibition of the activity of UL54 alone
Protocol: The basal DNA polymerase activity of UL54 in the absence or in the presence of various amounts of each compound was measured by a filter-based assay as previously described (Loregian et al., 2003), but using 5 μl of in vitro-transcribed and -translated UL54 as in Loregian et al. (Loregian et al., 2004a). The reaction was initiated by addition of a reaction mixture containing 75 mM Tris-HCl (pH 8.0), 6.5 mM MgCl2, bovine serum albumin (400 μg/ml), 1.67 mM β-mercaptoethanol, 150 mM KCl, 1.6 μM [^3H]dTTP, poly(dA)-oligo(dT) (10 μg/ml; Amersham Pharmacia Biotech), and 0, 4, 20, 40, 100 μM of each compound. Samples were taken after 20 min of incubation at 37° C. and spotted onto DE81 filters (Whatman), previously soaked in 0.1 M EDTA and air dried. The filters were washed three times in 5% Na2HPO4, two times in water, and two times in methanol and then were dried. Radioactivity was measured with a scintillation counter.

UL54 plus GST-UL44ΔC290 = target: T1, UL54 plus GST-UL44ΔC290 (Human cytomegalovirus, UniProt P16790); experiment: long-chain DNA synthesis by UL54 in the presence of UL44; format: biochemical, HCMV; details: for inhibition of long-chain DNA synthesis by UL54 and UL44: dose-response
T1 construct: GST-UL44ΔC290 fusion protein, which contains the N-terminal 290 residues of HCMV UL44; made in house; host or cells: UL54: in vitro transcription/translation; GST-UL44ΔC290: E. coli BL21 (DE3)pLysS
Protocol: To analyze the ability of the compounds to interfere with functional UL54-UL44 interactions, we tested their ability to inhibit long-chain DNA synthesis by UL54 in the presence of UL44 employing a poly(dA)-oligo(dT)12-18 template-primer.
DNA polymerase assays. The effects of compounds were tested in an assay that measures long-chain DNA synthesis as described in Loregian et al. (Loregian et al., 2004a), with 5 μl of in vitro-transcribed and -translated UL54 plus 800 fmol of GST-UL44ΔC290 in the absence or in the presence of various amounts of each compound.
The effect of the compounds was also tested in an assay that measures long chain (Lc) DNA synthesis as described in Loregian et al., J. Virol. […]

HCMV AD169 = experiment: virus yield reduction assay; format: cell-based, human cytomegalovirus
Protocol: Next, we tested the effects of selected compounds and of GCV as a control in viral yield assays, which measure the titer of virus progeny produced following infection at relatively high multiplicity. In these assays, the viral titer was measured at two different times points post-infection (p.i.): at 96 hrs, when the release of virus progeny is increasing, and at 120 hrs, when the titer of virus progeny after a single cycle of replication reaches peak levels (Stinski, 1983).
(§1) For yield reduction assays, HFF cells were plated at 2×10^4 cells per well in 96-well cluster dishes, incubated overnight, and infected with HCMV AD169 at a multiplicity of infection (MOI) of 1. After virus adsorption for 2 hr at 37° C., cells were washed and incubated with 200 μl of fresh media containing test compounds at increasing drug concentration. Plates were incubated for 3 or 5 days at 37° C. and subjected to one cycle of freezing and thawing, and titers were determined by transferring 100-μl aliquots from each of the wells to a fresh 96-well monolayer culture of HFF cells followed by 1:5 serial dilution across the plate. Cultures were incubated for 7 days, cells were stained, and the numbers of plaques were determined as described above.
as §1, with “The effect of the compounds was assessed in an assay of virus yield. In this assay, cells are infected at a relatively high multiplicity of infection (about one per cell) and then drug is added. The virus produced at the different times post infection is measured. 120 hrs. is about the peak titer. This assay was conducted as follows.” for “For yield reduction assays,”, “20,000” for “2×10^4”, “an MOI” for “a multiplicity of infection (MOI)”, “0.1, 0.3, 1, 3, 10, 30 μM” for “increasing”

HFF cells = experiment: XTT cytotoxicity assay; format: cell-based, human
Protocol: (§2) Cytotoxicity assays. HFF cells were seeded at 2×10^4, 4×10^3, or 10^3 cells per well into 96-well plates and, after a 3-hr incubation to allow cell attachment, were treated for 24, 72, or 120 hr, respectively, with various concentrations of each compound in duplicate. Cell viability was then determined with an XTT assay (Roche Molecular Biochemicals) according to the manufacturer's protocol by using a Victor plate reader (Wallac).
(§3) The cytotoxicity of the compounds was measured in an XTT assay. XTT is a compound that is converted to a product that can be measured […], but only by viable cells. This assay is as follows. HFF (human foreskin fibroblasts) cells were seeded at different concentrations into 96-well plates and treated with various concentrations (from 0 to 200 μM) of each compound in duplicate for 24, 72 or 120 hr. Cell viability was then determined with an XTT assay (Roche Molecular Biochemicals) according to the manufacturer's protocol by using a Victor plate reader (Wallac).

HCMV strain AD169 = experiment: plaque reduction assay; format: cell-based, human cytomegalovirus; details: HFF cells; 0-30 μM
Protocol: Antiviral assays. Plaque reduction assays were performed essentially as follows: HFF (human foreskin fibroblast) cells were seeded at 2×10^5 cells per well in 24-well cluster dishes. The next day, cells were infected with HCMV (strain AD169) at 80 PFU per well in DMEM plus 5% fetal bovine serum (FBS) at 37° C. Two hours post-infection, the inocula were removed, cells were washed, and media containing various drug dilutions, 5% FBS, and 0.6% methylcellulose were added. All drug dilutions were tested at least in duplicate. After incubation at 37° C. for 10-11 days, cell monolayers were stained with crystal violet and plaques were counted under light microscopy.
The effect of the compounds was assessed in a plaque reduction assay that measures the number of plaques formed in the presence of varying concentrations of a drug, as follows. HFF were seeded at 2×10^5 cells per well in 24-well cluster dishes. The next day, they were infected with HCMV AD169 at 80 PFU per well in DMEM plus 5% FBS at 37° C. Two hr post-infection, the inocula were then removed, cells were washed, and media containing selected drug dilutions (0, 0.1, 0.3, 1, 3, 10, 30 μM), and 5% FBS and 0.6% methylcellulose were added. All drug dilutions were tested at least in duplicate. After incubation at 37° C. for 10-11 days, cell monolayers were stained with crystal violet and plaques were enumerated under light microscopy.

[1] = target: T2, full-length UL54 / UL44 interaction (Human cytomegalovirus, UniProt P16790); experiment: UL54-UL44 interaction ELISA; format: binding, HCMV; details: concentrations up to 200 μM
T2 construct: made in house; host or cells: baculovirus expression; proteins provided by H. S. Marsden (Institute of Virology, Glasgow)
Protocol: In this assay, binding between purified baculovirus-expressed UL54 and UL44, which was tagged with an EEF epitope, was detected using an antibody that recognizes the epitope tag (Loregian et al., 2003).
UL54-UL44 interaction ELISA. This assay was conducted as described in (Loregian et al., 2003), testing various concentrations of each compound. After final washes, the chromogenic substrate 2,2′-azino-bis(3-ethylbenzothiazoline-6-sulphonic acid (ABTS, Pierce) in citrate phosphate buffer (pH 4.0) containing 0.01% hydrogen peroxide was added and absorbance was read at 405 nm on a Victor plate reader (Wallac).
Another assay that was used to test the effect of the compounds on the interaction of UL44 and UL54 is an ELISA interaction assay, which measures the interaction of the two full length proteins with each other. This assay was conducted as described in Loregian et al., J. Virol. 2003, 77:8336-8344, testing different concentrations (0, 3.12, 6.25, 12.5, 25, 50, 100, 200 μM) of each compound.

XTT cytotoxicity assay = format: cell-based, human; details: human
Protocol: as §2, §3

[2] = literature; cited from earlier work

T1 sequence (P16790 1-290, stated change not applied): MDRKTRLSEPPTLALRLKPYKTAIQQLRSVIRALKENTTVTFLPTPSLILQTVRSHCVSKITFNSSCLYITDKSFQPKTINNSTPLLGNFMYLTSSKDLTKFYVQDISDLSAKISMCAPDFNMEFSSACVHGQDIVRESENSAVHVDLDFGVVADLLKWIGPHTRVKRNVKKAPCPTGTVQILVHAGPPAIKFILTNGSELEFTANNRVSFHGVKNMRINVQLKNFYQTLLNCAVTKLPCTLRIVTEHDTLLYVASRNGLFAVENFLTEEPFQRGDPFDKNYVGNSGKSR
T2 sequence (P16790 whole entry): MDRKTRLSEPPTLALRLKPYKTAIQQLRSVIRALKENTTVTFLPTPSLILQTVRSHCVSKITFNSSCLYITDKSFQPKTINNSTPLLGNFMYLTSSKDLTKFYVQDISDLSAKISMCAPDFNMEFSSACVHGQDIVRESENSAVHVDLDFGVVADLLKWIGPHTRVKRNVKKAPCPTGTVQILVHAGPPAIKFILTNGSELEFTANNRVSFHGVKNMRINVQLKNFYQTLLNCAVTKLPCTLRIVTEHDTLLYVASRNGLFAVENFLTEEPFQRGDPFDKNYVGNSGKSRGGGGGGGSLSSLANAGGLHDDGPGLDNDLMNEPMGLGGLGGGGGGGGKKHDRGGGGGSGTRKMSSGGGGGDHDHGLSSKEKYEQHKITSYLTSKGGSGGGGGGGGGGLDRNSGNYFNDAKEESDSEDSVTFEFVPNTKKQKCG
UL54, sequence (P08546 whole entry): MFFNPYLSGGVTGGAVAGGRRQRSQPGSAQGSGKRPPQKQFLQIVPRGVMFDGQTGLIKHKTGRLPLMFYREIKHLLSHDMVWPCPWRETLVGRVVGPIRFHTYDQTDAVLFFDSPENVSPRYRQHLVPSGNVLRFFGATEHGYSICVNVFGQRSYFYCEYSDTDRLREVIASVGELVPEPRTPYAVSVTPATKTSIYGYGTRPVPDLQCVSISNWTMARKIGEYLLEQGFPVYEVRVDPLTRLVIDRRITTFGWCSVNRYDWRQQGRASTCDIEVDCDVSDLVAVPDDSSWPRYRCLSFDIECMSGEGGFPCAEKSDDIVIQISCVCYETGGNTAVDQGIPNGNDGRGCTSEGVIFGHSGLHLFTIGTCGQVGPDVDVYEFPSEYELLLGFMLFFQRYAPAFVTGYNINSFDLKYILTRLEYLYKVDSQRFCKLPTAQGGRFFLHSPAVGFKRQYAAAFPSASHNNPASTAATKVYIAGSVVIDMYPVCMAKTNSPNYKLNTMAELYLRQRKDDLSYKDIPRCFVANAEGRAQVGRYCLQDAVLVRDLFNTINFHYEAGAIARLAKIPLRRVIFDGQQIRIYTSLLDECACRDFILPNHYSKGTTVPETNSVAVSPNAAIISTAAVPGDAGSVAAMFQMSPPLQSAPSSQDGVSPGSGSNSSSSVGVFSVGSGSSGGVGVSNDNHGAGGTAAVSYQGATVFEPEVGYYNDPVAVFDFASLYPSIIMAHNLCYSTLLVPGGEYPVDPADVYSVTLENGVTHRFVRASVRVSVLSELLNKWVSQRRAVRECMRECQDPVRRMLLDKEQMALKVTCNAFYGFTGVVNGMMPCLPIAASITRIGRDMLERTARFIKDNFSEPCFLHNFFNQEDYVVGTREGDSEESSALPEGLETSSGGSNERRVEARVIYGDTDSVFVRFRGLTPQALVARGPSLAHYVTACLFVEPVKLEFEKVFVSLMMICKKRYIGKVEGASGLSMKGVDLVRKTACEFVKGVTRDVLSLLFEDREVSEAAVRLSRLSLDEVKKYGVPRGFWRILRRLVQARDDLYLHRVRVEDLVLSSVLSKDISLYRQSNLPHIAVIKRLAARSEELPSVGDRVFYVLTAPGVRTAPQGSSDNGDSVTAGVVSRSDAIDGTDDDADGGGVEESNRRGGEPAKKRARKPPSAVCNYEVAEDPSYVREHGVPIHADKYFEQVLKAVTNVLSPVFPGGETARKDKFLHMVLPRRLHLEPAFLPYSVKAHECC

SMILES | inhibition of long-chain DNA synthesis by UL54 and UL44 (UL54 plus GST-UL44ΔC290) | effect on virus yield / HCMV replication (HCMV AD169) | IC50s in plaque reduction assay (HCMV strain AD169) | inhibition of the UL54-UL44 physical interaction [1] | other results
CCOc1cc(C2C(C#N)=C(N)Oc3n[nH]c(-c4ccc(OC)cc4)c32)cc([N+](=O)[O-])c1O (stereo not drawn) [AL2] | little or no inhibition | little or no effect | – | – | pIC50 (UL54): 4.02
Nc1ccc(N)c2c1C(=O)c1c(O)ccc(O)c1C2=O [AL18] | relatively low IC50s | relatively low IC50s; also recorded: submicromolar | relatively low IC50s | potent | CC50 (HFF cells; 120 hrs, HFF cells): 200 µM; cytotoxicity (HFF cells; HFF cells, 24, 72 or 120 hr): relatively high CC50's; inhibition of long-chain DNA synthesis by UL54 and UL44 at one concentration (UL54 plus GST-UL44ΔC290; 40 μM): severely decreased formation of long DNA products
CNC(=S)NN=Cc1ccc(OC)c(Br)c1 [AL20] | little or no inhibition | relatively low IC50s | relatively low IC50s | did not significantly inhibit | cytotoxic concentration relative to antiviral concentration (HFF cells): 7-500 fold; cytotoxicity (HFF cells): relatively high CC50's
Nc1nc(O)c2ncn(COC(CO)CO)c2n1 [GCV, ganciclovir, reference compound] | – | – | – | – | CC50 (XTT cytotoxicity assay): ~200 µM
Nc1ccn(C[C@@H](CO)OCP(=O)(O)O)c(=O)n1 [cidofovir] | – | – | – | – | cytotoxic activities reported [2]: 360 µM
